PubChem BioAssay (NCI)
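The compound was tested at five concentrations on cells cultured in 96-well plates, with a 48-hour exposure period. GI50 is the concentration that inhibits growth by half. TGI is the concentration that stops growth completely.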

What was measured:
Experiment in all cases: NCI-60 cell line screen, 48 h
ACHN renal = test system: ACHN renal
CAKI-1 renal = test system: CAKI-1 renal
T-47D breast = test system: T-47D breast
K-562 leukemia = test system: K-562 leukemia
COLO 205 colon = test system: COLO 205 colon
NCI-H460 lung = test system: NCI-H460 lung
NCI-H522 lung = test system: NCI-H522 lung
OVCAR-3 ovarian = test system: OVCAR-3 ovarian
OVCAR-8 ovarian = test system: OVCAR-8 ovarian
RPMI-8226 leukemia = test system: RPMI-8226 leukemia
MDA-MB-435 = test system: MDA-MB-435
M14 melanoma = test system: M14 melanoma
A549 NSCLC = test system: A549 NSCLC
SK-MEL-5 melanoma = test system: SK-MEL-5 melanoma
MALME-3M melanoma = test system: MALME-3M melanoma
TK-10 renal = test system: TK-10 renal
HL-60(TB) leukemia = test system: HL-60(TB) leukemia
SF-268 CNS = test system: SF-268 CNS
NCI/ADR-RES ovarian = test system: NCI/ADR-RES ovarian
BT-549 breast = test system: BT-549 breast
HOP-92 NSCLC = test system: HOP-92 NSCLC
HCT-116 colon = test system: HCT-116 colon
EKVX NSCLC = test system: EKVX NSCLC
UACC-257 melanoma = test system: UACC-257 melanoma
SNB-19 CNS = test system: SNB-19 CNS
KM12 colon = test system: KM12 colon
SR leukemia = test system: SR leukemia
MDA-MB-231 breast = test system: MDA-MB-231 breast
CCRF-CEM leukemia = test system: CCRF-CEM leukemia
SK-OV-3 ovarian = test system: SK-OV-3 ovarian
SN12C renal = test system: SN12C renal
OVCAR-5 ovarian = test system: OVCAR-5 ovarian
SK-MEL-28 melanoma = test system: SK-MEL-28 melanoma
DU-145 prostate = test system: DU-145 prostate
SNB-75 CNS = test system: SNB-75 CNS
NCI-H23 lung = test system: NCI-H23 lung
A498 renal = test system: A498 renal
UACC-62 melanoma = test system: UACC-62 melanoma
SW-620 colon = test system: SW-620 colon
HOP-62 NSCLC = test system: HOP-62 NSCLC
SK-MEL-2 melanoma = test system: SK-MEL-2 melanoma
HCC-2998 colon = test system: HCC-2998 colon
RXF 393 renal = test system: RXF 393 renal
NCI-H226 lung = test system: NCI-H226 lung
OVCAR-4 ovarian = test system: OVCAR-4 ovarian
LOX IMVI melanoma = test system: LOX IMVI melanoma
MCF7 breast = test system: MCF7 breast
HS 578T breast = test system: HS 578T breast
786-0 renal = test system: 786-0 renal
MOLT-4 leukemia = test system: MOLT-4 leukemia
SF-539 CNS = test system: SF-539 CNS
UO-31 renal = test system: UO-31 renal
HCT-15 colon = test system: HCT-15 colon
HT29 colon = test system: HT29 colon
SF-295 CNS = test system: SF-295 CNS
U251 CNS = test system: U251 CNS
PC-3 prostate = test system: PC-3 prostate
IGROV1 ovarian = test system: IGROV1 ovarian

## O=C(N/N=C/c1ccc([N+](=O)[O-])s1)c1[nH]c2ccc(Br)cc2c1-c1ccccc1
ACHN renal
  GI50: 883 nM
CAKI-1 renal
  GI50: 1510 nM
  TGI: > 26100 nM
T-47D breast
  GI50: 2350 nM
  TGI: > 91300 nM
K-562 leukemia
  GI50: 365 nM
  TGI: 14200 nM
COLO 205 colon
  GI50: 578 nM
  TGI: 1140 nM
NCI-H460 lung
  GI50: 820 nM
  TGI: 3030 nM
NCI-H522 lung
  GI50: 115 nM
  TGI: 535 nM
OVCAR-3 ovarian
  GI50: 1060 nM
  TGI: 9860 nM
OVCAR-8 ovarian
  GI50: 756 nM
  TGI: 2080 nM
RPMI-8226 leukemia
  GI50: 912 nM
  TGI: 8560 nM
MDA-MB-435
  GI50: 323 nM
  TGI: 918 nM
M14 melanoma
  GI50: 627 nM
  TGI: 2030 nM
A549 NSCLC
  GI50: 1070 nM
  TGI: 12900 nM
SK-MEL-5 melanoma
  GI50: 605 nM
  TGI: 1290 nM
MALME-3M melanoma
  GI50: 800 nM
  TGI: 4500 nM
TK-10 renal
  GI50: 2970 nM
  TGI: > 49800 nM
HL-60(TB) leukemia
  GI50: 723 nM
  TGI: 1940 nM
SF-268 CNS
  GI50: 1840 nM
  TGI: > 100000 nM
NCI/ADR-RES ovarian
  GI50: 458 nM
BT-549 breast
  GI50: 747 nM
  TGI: 2670 nM
HOP-92 NSCLC
  GI50: 851 nM
  TGI: 4610 nM
HCT-116 colon
  GI50: 816 nM
  TGI: 4700 nM
EKVX NSCLC
  GI50: 1720 nM
  TGI: 8290 nM
UACC-257 melanoma
  GI50: 916 nM
  TGI: 9150 nM
SNB-19 CNS
  GI50: 961 nM
  TGI: > 32300 nM
KM12 colon
  GI50: 1080 nM
  TGI: 5470 nM
SR leukemia
  GI50: 391 nM
  TGI: 10600 nM
MDA-MB-231 breast
  GI50: 881 nM
  TGI: 2850 nM
CCRF-CEM leukemia
  GI50: 1220 nM
  TGI: 99600 nM
SK-OV-3 ovarian
  GI50: 1690 nM
  TGI: > 53500 nM
SN12C renal
  GI50: 885 nM
  TGI: 3130 nM
OVCAR-5 ovarian
  GI50: 1140 nM
  TGI: 27200 nM
SK-MEL-28 melanoma
  GI50: 995 nM
  TGI: > 34200 nM
DU-145 prostate
  GI50: 1140 nM
  TGI: > 55400 nM
SNB-75 CNS
  GI50: 320 nM
  TGI: 5710 nM
NCI-H23 lung
  GI50: 1180 nM
  TGI: 18800 nM
A498 renal
  GI50: > 34700 nM
  TGI: > 92100 nM
UACC-62 melanoma
  GI50: 401 nM
  TGI: 3980 nM
SW-620 colon
  GI50: 768 nM
  TGI: 8530 nM
HOP-62 NSCLC
  GI50: 1070 nM
  TGI: 6970 nM
SK-MEL-2 melanoma
  GI50: 769 nM
  TGI: 2540 nM
HCC-2998 colon
  GI50: 787 nM
  TGI: 2120 nM
RXF 393 renal
  GI50: 354 nM
  TGI: 9220 nM
NCI-H226 lung
  GI50: 716 nM
  TGI: 2780 nM
OVCAR-4 ovarian
  GI50: 1630 nM
  TGI: > 46900 nM
LOX IMVI melanoma
  GI50: 487 nM
  TGI: 12700 nM
MCF7 breast
  GI50: 741 nM
  TGI: > 32400 nM
HS 578T breast
  GI50: 943 nM
  TGI: 12900 nM
786-0 renal
  GI50: 1300 nM
  TGI: 19200 nM
MOLT-4 leukemia
  GI50: 1070 nM
  TGI: 16600 nM
SF-539 CNS
  GI50: 515 nM
  TGI: 1510 nM
UO-31 renal
  GI50: 1040 nM
  TGI: > 33400 nM
HCT-15 colon
  GI50: 706 nM
  TGI: 2720 nM
HT29 colon
  GI50: 858 nM
  TGI: 2800 nM
SF-295 CNS
  GI50: 596 nM
  TGI: 12200 nM
U251 CNS
  GI50: 716 nM
  TGI: 3030 nM
PC-3 prostate
  GI50: 967 nM
IGROV1 ovarian
  GI50: 932 nM
  TGI: > 50900 nM
